The target of test [1] is T1, recombinant human pro-heparanase (H60) (Homo sapiens, UniProt Q9Y251).
T1 construct: Heparanase maturation involves the removal of the signal peptide, transforming the 65 kDa pre-pro-heparanase into a 60 kDa pro-heparanase; made in house
T1 sequence (Q9Y251 36-543): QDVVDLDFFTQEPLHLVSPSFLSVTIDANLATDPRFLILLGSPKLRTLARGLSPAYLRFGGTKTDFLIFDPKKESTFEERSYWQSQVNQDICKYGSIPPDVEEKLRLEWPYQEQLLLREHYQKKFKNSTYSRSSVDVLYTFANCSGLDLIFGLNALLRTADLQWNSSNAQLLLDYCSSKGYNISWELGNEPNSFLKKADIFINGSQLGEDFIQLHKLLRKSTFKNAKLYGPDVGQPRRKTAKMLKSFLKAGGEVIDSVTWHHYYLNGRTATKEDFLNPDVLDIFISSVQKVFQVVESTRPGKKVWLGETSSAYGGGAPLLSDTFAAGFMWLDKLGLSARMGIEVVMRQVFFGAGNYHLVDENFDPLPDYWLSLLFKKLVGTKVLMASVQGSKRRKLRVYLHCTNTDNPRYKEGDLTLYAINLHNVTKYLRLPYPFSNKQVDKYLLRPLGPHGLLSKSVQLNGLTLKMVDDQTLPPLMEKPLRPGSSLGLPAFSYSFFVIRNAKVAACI
Kind of test: Pro-heparanase (H60) activation in a cell-based assay. Conditions: inhibition of pro-heparanase activation in CHO cells; NI = no inhibition. The method, then:
Pro-heparanase (H60) activation in a cell-based assay: Chinese hamster ovary (CHO) cells were grown in complete F12 medium supplemented with 10% fetal calf serum (FCS). […] The plates were incubated for 24 hours in a 37° C. humidified incubator with 5% CO2. […] The plates were further incubated for additional 4 hours. The pro-heparanase was allowed to internalize by the cells and further processed to generate the active 53 kDa heparanase. At the end of the incubation, the cells were lysed by three consecutive cycles of freezing and thawing in a −80° C. freezer and a 37° C. shaker.
The rigidified compounds described herein were tested for inhibition of pro-heparanase activation in the cell-based assay described above.

Another test deals with T2, heparanase (H53) (Homo sapiens, UniProt Q9Y251).
T2 construct: The 45 kDa major subunit and the 8 kDa small subunit hetero-complex to form the 53 kDa active form of heparanase
T2 sequence (Q9Y251 36-109 limits assumed): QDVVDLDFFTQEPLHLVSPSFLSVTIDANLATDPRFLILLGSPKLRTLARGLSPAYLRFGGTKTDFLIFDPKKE
T2 sequence (Q9Y251 158-543 limits assumed): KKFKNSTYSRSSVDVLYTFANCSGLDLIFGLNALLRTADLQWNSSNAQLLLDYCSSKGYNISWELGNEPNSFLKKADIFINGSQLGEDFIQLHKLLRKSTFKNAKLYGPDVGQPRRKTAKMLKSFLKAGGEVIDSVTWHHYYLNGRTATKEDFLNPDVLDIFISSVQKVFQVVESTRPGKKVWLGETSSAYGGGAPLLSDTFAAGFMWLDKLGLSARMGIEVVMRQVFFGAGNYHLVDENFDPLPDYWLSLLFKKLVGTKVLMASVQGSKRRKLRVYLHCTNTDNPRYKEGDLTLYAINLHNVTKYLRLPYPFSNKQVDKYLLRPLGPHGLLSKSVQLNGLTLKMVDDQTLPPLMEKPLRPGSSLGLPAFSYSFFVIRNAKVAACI
Kind of test: Heparanase (H53) assay (DMB assay). Conditions: for IC50: inhibition of heparanase activity, DMB assay, NI = no inhibition. The class given is biochemical. The method, then:
Heparanase (H53) assay: The rigidified compounds described herein were tested for inhibition of heparanase activity in the DMB assay described in U.S. Pat. No. 6,190,875. IC50 was calculated from inhibition curves of all active compounds.

Test [2] has as its target T3, vascular endothelial growth factor (VEGF) (Homo sapiens, UniProt P15692).
T3 sequence (P15692 27-191 isoform P15692-4): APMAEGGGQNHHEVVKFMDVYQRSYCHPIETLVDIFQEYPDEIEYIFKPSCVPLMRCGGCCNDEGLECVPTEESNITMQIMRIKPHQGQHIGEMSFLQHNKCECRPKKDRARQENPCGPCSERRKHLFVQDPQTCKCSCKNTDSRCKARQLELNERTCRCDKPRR
Kind of test: ELISA for determination of binding of VEGF to heparin. The note with it: for IC50: inhibition of VEGF binding to heparin, NI = no inhibition; for inhibition of VEGF binding to heparin: inhibition towards both growth factors. The method, then: Enzyme-linked immunosorbent assay (ELISA) for determination of binding of vascular endothelial growth factor (VEGF) to heparin: 96-well microplates were coated for 2 hours. at 23-25° C. with 5 μg/ml heparin-albumin (Rimon Biotech) and blocked with 1% bovine serum albumin (BSA) in phosphate buffer (PBS) with 0.05% Tween and 0.01% thimerosal for 2 hours. VEGF was added to the plates at a concentration of 10 ng/ml and the plates were thereafter incubated for 45 minutes at 23-25° C. The amount of VEGF bound to heparin was detected using anti-VEGF monoclonal antibody (Sigma Cat. No. V4758) at a concentration of 0.26 μg/ml and secondary antibodies Sheep anti-mouse IgG linked to horseradish peroxidase (1:2000) using 3,3′,5,5′-tetramethylbenzidine (TMB, Pierce Cat. No. 34021) as a substrate for peroxidase. The plates were read at 450 nm with a reference wavelength of 630 nm using a VERSAmax plate reader. […] Percent inhibition was calculated as compared with a control pre-incubated with a solution of 1% DMSO and the results are presented in Table 3 below.

A further test addresses β-FGF (Homo sapiens, UniProt P09038). Kind of test: ELISA for determination of binding of β-FGF to heparin. The note with it: for IC50: inhibition of β-FGF binding to heparin, NI = no inhibition; for inhibition of β-FGF binding to heparin: inhibition towards both growth factors. The method, then: ELISA for determination of binding of β-FGF to heparin: 96-well microplates were coated for 2 hours at 23-25° C. with 5 μg/ml heparin-albumin (Rimon Biotech) and blocked with 1% BSA in PBS, with 0.05% Tween, and 0.01% thimerosal for 2 hours. β-FGF was added to the plates at a concentration of 10 ng/ml and plates were incubated for 45 minutes at 23-25° C. The amount of β-FGF bound to heparin was detected using anti-FGF monoclonal antibody (Sigma Cat. No. F6162) at a concentration of 2.5 ng/ml and secondary antibodies Sheep anti-mouse IgG linked to horseradish peroxidase (1:3000) TMB (Pierce Cat. No. 34021) was used as a substrate for peroxidase. The plates were read at 450 nm with a reference wavelength of 630 nm using a VERSAmax plate reader.
(In general: An ELISA detects its analyte on a solid surface through an enzyme-linked reagent.)

Chain of β-FGF (P09038 143-288): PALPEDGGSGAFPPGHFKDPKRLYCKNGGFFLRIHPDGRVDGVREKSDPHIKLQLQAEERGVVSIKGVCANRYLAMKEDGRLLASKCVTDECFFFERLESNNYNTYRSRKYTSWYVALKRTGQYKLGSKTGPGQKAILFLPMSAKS

Take `O=C(O)CCCN1C(=O)c2cc3oc(-c4ccc(Cl)cc4)cc3n2C1=S` [Compound 5, 4-[2-(4-chloro-phenyl)-6-oxo-4-thioxo-6H-1-oxa-3b,5-diaza-cyclopenta[a]pentalen-5-yl]-butyric acid]: the IC50 in test [1] is 1000 nM; at heparanase (H53) it was 11800 nM; in test [2], 6000 nM; on β-FGF it was 2100 nM. The “dual activity: inhibition of pro-heparanase activation (H60) and of heparanase activity (H53)” value at heparanase (H53) (compounds with an acidic group) is given as “dual activity”.
As for `CN(C)CCCNC(=O)CC(C)(C)CN1C(=O)c2cc3oc(-c4ccc(Cl)cc4)cc3n2C1=S` [Compound 15, 4-[2-(4-Chloro-phenyl)-6-oxo-4-thioxo-6H-1-oxa-3b,5-diaza-cyclopenta[a]pentalen-5-yl]-N-(3-dimethylamino-propyl)-3,3-dimethyl-butyramide], the IC50 in test [1] is 160 nM. Besides, in test [2], the IC50 came out at 180 nM and the “inhibition of VEGF binding to heparin” value is on record as “sub-micromolar”. At β-FGF, the IC50 is 440 nM and the “inhibition of β-FGF binding to heparin” value is “sub-micromolar”.
On to `CC(C)(CC(=O)N1CCOCC1)CN1C(=O)c2cc3oc(-c4ccc(Cl)cc4)cc3n2C1=S` [Compound 17, 2-(4-Chloro-phenyl)-5-(2,2-dimethyl-4-morpholin-4-yl-4-oxo-butyl)-4-thioxo-4,5-dihydro-1-oxa-3b,5-diaza-cyclopenta[a]pentalen-6-one], for which the IC50 in test [1] was 150 nM. In addition, in test [2], the IC50 was 420 nM and the “inhibition of VEGF binding to heparin” value is reported as “sub-micromolar”. For the same molecule, at β-FGF, the IC50 stood at 870 nM and the “inhibition of β-FGF binding to heparin” value is on record as “sub-micromolar”.
For `CC(C)(CC(=O)NCC(=O)O)CN1C(=O)c2cc3oc(-c4ccc(Cl)cc4)cc3n2C1=S` [Compound 18, {4-[2-(4-Chloro-phenyl)-6-oxo-4-thioxo-6H-1-oxa-3b,5-diaza-cyclopenta[a]pentalen-5-yl]-3,3-dimethyl-butyrylamino}-acetic acid], the IC50 in test [1] worked out at 460 nM; in test [2], 2000 nM; on β-FGF, 1400 nM.
As for `CC(C)(CC(=O)NCC(=O)OC(C)(C)C)CN1C(=O)c2cc3oc(-c4ccc(Cl)cc4)cc3n2C1=S` [Compound 19, {4-[2-(4-Chloro-phenyl)-6-oxo-4-thioxo-6H-1-oxa-3b,5-diaza-cyclopenta[a]pentalen-5-yl]-3,3-dimethyl-butyrylamino}-acetic acid tert-butyl ester], the IC50 in test [1] amounted to 420 nM. Further, in test [2], the IC50 amounted to 510 nM and the “inhibition of VEGF binding to heparin” value is given as “sub-micromolar”. For the same molecule, on β-FGF, the IC50 was determined as 500 nM and the “inhibition of β-FGF binding to heparin” value is given as “sub-micromolar”.
For the molecule `COC(=O)CN(C)C(=O)CC(C)(C)CN1C(=O)c2cc3oc(-c4ccc(Cl)cc4)cc3n2C1=S` [Compound 20, ({4-[2-(4-Chloro-phenyl)-6-oxo-4-thioxo-6H-1-oxa-3b,5-diaza-cyclopenta[a]pentalen-5-yl]-3,3-dimethyl-butyryl}-methyl-amino)-acetic acid methyl ester], the IC50 in test [1] is 320 nM; in test [2], 420 nM; at β-FGF, 350 nM. Further, the “inhibition of VEGF binding to heparin” value in test [2] was “sub-micromolar”. Further, the “inhibition of β-FGF binding to heparin” value on β-FGF is “sub-micromolar”.
Turning to `CCN(CC)C(=O)CC1(CN2C(=O)c3cc4oc(-c5ccc(Cl)cc5)cc4n3C2=S)CCCCC1` [Compound 24, 2-{1-[2-(4-Chloro-phenyl)-6-oxo-4-thioxo-6H-1-oxa-3b,5-diaza-cyclopenta[a]pentalen-5-ylmethyl]-cyclohexyl}-N,N-diethyl-acetamide], the half-inhibitory concentration (IC50) in test [1] amounted to 1500 nM. Moreover, in test [2], the IC50 turned out to be 90 nM and the “inhibition of VEGF binding to heparin” value is “sub-micromolar”. In addition, at β-FGF, the IC50 was found to be 150 nM and the “inhibition of β-FGF binding to heparin” value is listed as “sub-micromolar”.
With `CCOC(=O)CCCN1C(=O)c2cc3oc(-c4cccc(C(F)(F)F)c4)cc3n2C1=S` [Compound 25, ethyl 4-[6-oxo-4-thioxo-2-(3-trifluoromethyl-phenyl)-6H-1-oxa-3b,5-diaza-cyclopenta[a]pentalen-5-yl]-butyric acid ethyl ester], the IC50 in test [1] is 2700 nM; in test [2] it was 140 nM; at β-FGF, 120 nM.
Consider `COCCCN1C(=O)c2cc3oc(-c4ccc(Cl)cc4)cc3n2C1=S` [Compound 28, 2-(4-Chloro-phenyl)-5-(3-methoxy-propyl)-4-thioxo-4,5-dihydro-1-oxa-3b,5-diaza-cyclopenta[a]pentalen-6-one], for which the IC50 in test [1] worked out at 6600 nM. Further, in test [2], the IC50 amounted to 170 nM and the “inhibition of VEGF binding to heparin” value is recorded as “sub-micromolar”. Besides, on β-FGF, the IC50 stood at 20 nM and the “inhibition of β-FGF binding to heparin” value was “sub-micromolar”.
On to `Cc1c(N2C(=O)c3cc4oc(-c5ccc(Cl)cc5)cc4n3C2=S)c(=O)n(-c2ccccc2)n1C` [Compound 29, 2-(4-chloro-phenyl)-5-(1,5-dimethyl-3-oxo-2-phenyl-2,3-dihydro-1H-pyrazol-4-yl)-4-thioxo-4,5-dihydro-1-oxa-3b,5-diaza-cyclopenta[a]pentalen-6-one], for which the IC50 in test [1] worked out at 370 nM. Further, in test [2], the IC50 was determined as 480 nM and the “inhibition of VEGF binding to heparin” value is reported as “sub-micromolar”. Besides, at β-FGF, the IC50 came out at 810 nM and the “inhibition of β-FGF binding to heparin” value is recorded as “sub-micromolar”.
With `O=C(O)CCCN1C(=O)c2cc3sc(-c4ccc([N+](=O)[O-])cc4)cc3n2C1=S` [Compound 32, 4-[2-(4-Nitro-phenyl)-6-oxo-4-thioxo-6H-1-thia-3b,5-diaza-cyclopenta[a]pentalen-5-yl]-butyric acid], the IC50 in test [1] was determined as 700 nM; against heparanase (H53), 27000 nM.

Usually IC50 stands for the concentration needed to halve the response being measured.

For the origin of these results see US7795255B2, “Rigidified compounds for modulating heparanase activity” (InSight Biopharmaceuticals Ltd., priority 2005, dated 2010).
